From patent publication EP2768830B1, “APOPTOSIS-INDUCING AGENTS FOR THE TREATMENT OF CANCER AND IMMUNE AND AUTOIMMUNE DISEASES” (AbbVie Inc., priority 2011, dated 2013)
pEC50, pKi: −log10 of the molar value. Read-outs that look alike come from different tables or passages of the source.

Assays:
[1] = tested on: mouse FL5.12 cells transfected with Bcl-XL; experiment: FL5.12 cellular assay (cell viability, CellTiter-Glo); format: cell-based; conditions: Mus musculus; for pEC50: FL5.12 cells transfected with Bcl-XL, IL-3-depleted, 3% FBS assay media, 24 hours, CellTiter-Glo, read-out: FL5.12 Bcl-xL, - IL3, EC 50;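 as to all read-outs here: each EC50 determination derived from duplicate measurements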
Protocol: For assaying the compound activity, the cells were exchanged into an IL-3-depleted deprivation media, which was identical to the growth media except for the absence of FBS and WEHI-3B conditional media, for 2 days. Then the cells were exchanged to 3% FBS assay media (RPMI with 2 mM glutamine, 1% 100 mM sodium pyruvate, 2% 1 M HEPES, 4 µL/L of β-mercaptoethanol, 1% penicillin-streptomycin, 3% FBS). Compounds in series dilutions were added, and the cells were cultured for 24 hours. Compounds in series dilutions were added, and the cells were cultured for 24 hours. Cell viability was assayed using the CellTiter-Glo assay (Promega Corp., Madison, WI) according to the manufacturer instructions. Individual determinations were the result of duplicate values.

GST-Bcl-xL = GST-Bcl-xL (Homo sapiens, UniProt Q07817); conditions: read-out: TR-FRET binding Bcl-xL Ki
Chain of GST-Bcl-xL (Q07817 whole entry): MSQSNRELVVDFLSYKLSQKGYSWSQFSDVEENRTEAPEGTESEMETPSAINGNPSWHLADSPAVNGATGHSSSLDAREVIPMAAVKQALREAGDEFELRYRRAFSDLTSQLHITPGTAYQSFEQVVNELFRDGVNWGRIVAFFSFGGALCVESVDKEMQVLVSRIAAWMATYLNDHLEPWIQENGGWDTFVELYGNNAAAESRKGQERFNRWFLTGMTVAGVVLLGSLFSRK

GST-Bcl-2 = target: T1, GST-Bcl-2 (Homo sapiens, UniProt P10415); conditions: F-Bak probe, read-out: Ki, competition with F-Bak for the Bcl-2 binding site using the TR-FRET binding assay
T1 construct: made in house
T1 sequence (P10415 whole entry): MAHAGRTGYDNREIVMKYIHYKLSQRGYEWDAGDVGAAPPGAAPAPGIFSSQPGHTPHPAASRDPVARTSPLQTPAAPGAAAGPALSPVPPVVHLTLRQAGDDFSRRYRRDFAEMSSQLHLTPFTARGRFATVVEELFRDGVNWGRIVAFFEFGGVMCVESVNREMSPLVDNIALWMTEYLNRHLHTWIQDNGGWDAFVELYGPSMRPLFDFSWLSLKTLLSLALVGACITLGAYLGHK

Row | SMILES | pEC50 [1] | pKi (GST-Bcl-xL) | pKi (GST-Bcl-2) | EC50 ([1]; FL5.12, 24 h, read-out: FL5.12 Bcl-xL, - IL3, EC 50 (nM)) [nM]
1 | Cc1c(-c2ccc(N3CCc4cccc(C(=O)Nc5nc6ccccc6s5)c4C3)nc2C(=O)O)cnn1Cc1ccccc1 [Example 20, 6-[8-(1,3-benzothiazol-2-ylcarbamoyl)-3,4-dihydroisoquinolin-2(1H)-yl]-3-(1-benzyl-5-methyl-1H-pyrazol-4-yl)pyridine-2-carboxylic acid] | 7.89 | 8.70 | 7.15 | 
2 | Cc1cc(OCC2CCCCC2)ccc1-c1ccc(N2CCc3cccc(C(=O)Nc4nc5ccccc5s4)c3C2)nc1C(=O)O [Example 115, 6-[8-(1,3-benzothiazol-2-ylcarbamoyl)-3,4-dihydroisoquinolin-2(1H)-yl]-3-[4-(cyclohexylmethoxy)-2-methylphenyl]pyridine-2-carboxylic acid] | 6.04 | 8.30 |  | 
3 | O=C(Nc1nc2ccccc2s1)c1cccc2c1CN(c1ccc(-c3cnn(CC4(C(F)(F)F)CCCCC4)c3)c(C(=O)O)n1)CC2 [Example 74, 6-[8-(1,3-benzothiazol-2-ylcarbamoyl)-3,4-dihydroisoquinolin-2(1H)-yl]-3-(1-{[1-(trifluoromethyl)cyclohexyl]methyl}-1H-pyrazol-4-yl)pyridine-2-carboxylic acid] | 6.47 | 8.22 |  | 
4 | CCc1c(-c2ccc(N3CCc4cccc(C(=O)Nc5nc6ccccc6s5)c4C3)nc2C(=O)O)cnn1CC1CCCCC1 [Example 84, 6-[8-(1,3-benzothiazol-2-ylcarbamoyl)-3,4-dihydroisoquinolin-2(1H)-yl]-3-[1-(cyclohexylmethyl)-5-ethyl-1H-pyrazol-4-yl]pyridine-2-carboxylic acid] | 7.92 | 9.15 |  | 
5 | O=C(Nc1nc2ccccc2s1)c1cccc2c1CN(c1ccc(-c3cnn(Cc4ccccc4OCCN4CCOCC4)c3)c(C(=O)O)n1)CC2 [Example 46, 6-[8-(1,3-benzothiazol-2-ylcarbamoyl)-3,4-dihydroisoquinolin-2(1H)-yl]-3-(1-{2-[2-(morpholin-4-yl)ethoxy]benzyl}-1H-pyrazol-4-yl)pyridine-2-carboxylic acid] | < 6.00 | 8.05 |  | 
6 | CC(C)CC1(Cn2cc(-c3ccc(N4CCc5cccc(C(=O)Nc6nc7ccccc7s6)c5C4)nc3C(=O)O)cn2)CCCCC1 [Example 87, 6-[8-(1,3-benzothiazol-2-ylcarbamoyl)-3,4-dihydroisoquinolin-2(1H)-yl]-3-(1-{[1-(2-methylpropyl)cyclohexyl]methyl}-1H-pyrazol-4-yl)pyridine-2-carboxylic acid] | 6.91 | 8.40 |  | 
7 | CC(c1ccccc1)n1cc(-c2ccc(N3CCc4cccc(C(=O)Nc5nc6ccccc6s5)c4C3)nc2C(=O)O)cn1 (stereo not drawn) [Example 5, 6-[8-(1,3-benzothiazol-2-ylcarbamoyl)-3,4-dihydroisoquinolin-2(1H)-yl]-3-[1-(1-phenylethyl)-1H-pyrazol-4-yl]pyridine-2-carboxylic acid] | 6.39 | 7.72 |  | 
8 | CN(C)Cc1cccc(Cn2cc(-c3ccc(N4CCc5cccc(C(=O)Nc6nc7ccccc7s6)c5C4)nc3C(=O)O)cn2)c1 [Example 68, 6-[8-(1,3-benzothiazol-2-ylcarbamoyl)-3,4-dihydroisoquinolin-2(1H)-yl]-3-(1-{3-[(dimethylamino)methyl]benzyl}-1H-pyrazol-4-yl)pyridine-2-carboxylic acid] | < 6.00 | 6.55 |  | 
9 | Cc1c(-c2ccc(N3CCc4cccc(C(=O)Nc5nc6ccccc6s5)c4C3)nc2C(=O)O)cccc1N(C)C(=O)C1(C)CCCCC1 [Example 179, 6-[8-(1,3-benzothiazol-2-ylcarbamoyl)-3,4-dihydroisoquinolin-2(1H)-yl]-3-(2-methyl-3-{methyl[(1-methylcyclohexyl)carbonyl]amino}phenyl)pyridine-2-carboxylic acid] |  | > 10.00 |  | 6
10 | O=C(Nc1nc2ccccc2s1)c1cccc2c1CN(c1ccc(-c3cnn(CC4CCOCC4)c3)c(C(=O)O)n1)CC2 [Example 50, 6-[8-(1,3-benzothiazol-2-ylcarbamoyl)-3,4-dihydroisoquinolin-2(1H)-yl]-3-[1-(tetrahydro-2H-pyran-4-ylmethyl)-1H-pyrazol-4-yl]pyridine-2-carboxylic acid] | < 6.00 | 7.00 |  | 
